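Each compound was tested at five concentrations against cells in 96-well plates for 48 hours. Here, GI50 denotes the concentration required for 50% inhibition of growth.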 Calls of active or inactive are those of the source. Rule as the data show it: active = GI50 up to about 1.1 µM and inactive = higher. Some results are limits rather than exact numbers.

Results on 18 molecules are retold here after ChEMBL document CHEMBL1201862, “PubChem BioAssay data set” (2004).

Assay in all cases: NCI tumour cell line growth inhibition, 48 h
The test system of test [1] is DMS-114.
The test system of test [2] is KM-20L2.
In test [3] the test system is DLD-1.
Test [4] has as its system DMS-273.
Test [5] deals with M19-MEL.
The subject of test [6] is XF498.
The subject of test [7] is HOP-18.
In test [8] the test system is RXF 631.
Test [9] deals with LXFL 529.

On to `COC(=O)C12OCC34C(CC5C(C)=C(O)C(=O)CC5(C)C3C(O)C1O)OC(=O)C(OC(=O)C=C(C)C)C24` (stereo unspecified), for which the GI50 is 167 µM (inactive) in test [1]; > 500 µM (inactive) in test [2]; 108 µM (inactive) in test [3]; > 500 µM (inactive) in test [4]; 287 µM (inactive) in [5]; 335 µM (inactive) in test [6]. For the same molecule, the GI50 in [7] is > 500 µM (inactive).
Regarding `CN1C(=O)C2C(C1=O)C1(O)c3ccccc3C2(N)c2ccccc21` (stereo unspecified), the GI50 in [1], in test [3], in test [8], in test [4], in [5] and in test [7] was > 100 µM (inactive) each time.
As for `Cc1c(Cl)ccc2c1NC(=O)C2(O)CC(=O)c1ccc(Cl)cc1Cl` (stereo unspecified), the GI50 in test [1] is 38.5 µM (inactive); in test [2], > 50 µM (inactive); in [8], 31 µM (inactive); in [4], > 50 µM (inactive); in test [5], > 50 µM (inactive); in [6], 16.7 µM (inactive). Besides, the GI50 in test [9] is 27.8 µM (inactive).
As for `O=C1c2cc3c(cc2[C@@H]2NC4CCCC14O2)OCO3` (stereo partly specified), the GI50 in test [1], in [2], in test [3], in test [4], in [5] and in test [6] was > 100 µM (inactive) in each case. Further, in [9], the GI50 is > 100 µM (inactive).
Regarding `CC1(c2cccc(C3CCC4(C=CC3=O)OCCO4)c2)OCCO1` (stereo unspecified), the GI50 in test [1] was 1.8 µM (inactive); in [2], 4.07 µM (inactive); in test [3], 3.35 µM (inactive); in test [4], 10.9 µM (inactive); in test [5], 5.62 µM (inactive); in test [9], 1.62 µM (inactive).
As for `CC[C@@H]1NC(C(=O)OC)Cc2c1[nH]c1ccccc21` (stereo partly specified), the GI50 in test [1], in test [2], in test [3], in test [8], in test [4] and in test [5] was > 100 µM (inactive) throughout. The GI50 in [9] and in test [7] was > 100 µM (inactive) in each case.
`C=C(CO)CC(O)c1ccccc1` (stereo unspecified): the GI50 in test [1], in [2], in test [3], in test [8], in [4] and in [5] was > 100 µM (inactive) throughout. Also, the GI50 in [6] and in test [9] was > 100 µM (inactive) in each case.
For `CN(C(=O)C12C3(C(=O)C(C)(C)C)C4C5(C#N)C3C1(C(=O)C(C)(C)C)C5C42C(=O)C(C)(C)C)C(C)(C)C` (stereo unspecified), the GI50 in [1] is 17.7 µM (inactive); in test [2] it was > 50 µM (inactive); in test [3], 35.3 µM (inactive); in test [8], 42.4 µM (inactive); in test [4], 42.8 µM (inactive); in test [5], > 50 µM (inactive). The GI50 in test [6] is 10.4 µM (inactive); in [9], 21.4 µM (inactive).
In the case of `Cc1nc(-n2nc(-c3ccccc3)cc2-c2ccccc2)sc1C(=O)CC(=O)C(=O)Nc1ccc(Cl)c(Cl)c1`, the GI50 in test [1] is 33.6 µM (inactive); in test [2], 45.8 µM (inactive); in [3], 34 µM (inactive); in test [8], > 100 µM (inactive); in test [4], 59.8 µM (inactive); in test [5], > 100 µM (inactive). In addition, the GI50 is 45.1 µM (inactive) in [9] and > 100 µM (inactive) in test [7].
For the molecule `O=[N+]([O-])c1cccc2c1[nH]c1c(-c3ccccc3)nccc12`, the GI50 in [1] is 1.27 µM (inactive); in test [2], 2.45 µM (inactive); in test [3], 2.85 µM (inactive); in test [4] it was 2.43 µM (inactive); in test [5], 2.07 µM (inactive); in test [6], 2.65 µM (inactive). Moreover, the GI50 in [7] was 0.274 µM (active).
As to `Cc1[nH]c2ccccc2c1C1Cc2ccccc2N1C(=O)C#Cc1ccc([N+](=O)[O-])cc1` (stereo unspecified), the GI50 in test [1], in test [2], in test [3], in test [6], in test [9] and in test [7] was > 100 µM (inactive) in each case.
For `COC(=O)c1ccc(OCc2ccc3nc(OC)c(OC)nc3c2)cc1`, the GI50 is 52.8 µM (inactive) in [1]; > 100 µM (inactive) in test [3]; > 100 µM (inactive) in test [4]; > 100 µM (inactive) in test [5]; > 100 µM (inactive) in [6]; > 100 µM (inactive) in test [7].
Consider `COc1ccc(/C=N/NS(=O)(=O)c2ccccc2)cc1`, for which the GI50 in test [1] is 63.1 µM (inactive); in test [2], > 100 µM (inactive); in test [3] it was > 100 µM (inactive); in test [4] it was > 100 µM (inactive); in test [5], > 100 µM (inactive); in test [6], > 100 µM (inactive). Also, the GI50 in [9] and in [7] was > 100 µM (inactive) in each case.
On to `c1cc(-c2cn3c(n2)SCC3)ccn1`, for which the GI50 in [1] is > 55 µM (inactive); in test [2], > 100 µM (inactive); in test [3], > 75.7 µM (inactive); in test [4], 28.3 µM (inactive); in test [5], > 60 µM (inactive); in [6], > 100 µM (inactive). Also, the values for the GI50 in test [9] and in test [7] were > 90.6 µM (inactive) and > 100 µM (inactive), respectively.
In the case of `O=C1C2CN(Cc3ccccc3)CC1CN(CC1CC1)C2`, the GI50 in test [1], in test [2], in [4], in test [5], in [6] and in test [9] was > 100 µM (inactive) throughout. Besides, the GI50 in test [7] is > 100 µM (inactive).
Consider `CCN(c1ccc(Br)cc1)c1c(Br)c(=O)nc2ccccn12`, for which the GI50 in test [1] was 70.6 µM (inactive); in [2] it was > 100 µM (inactive); in test [3], > 100 µM (inactive); in [8], > 100 µM (inactive); in test [4], 83.2 µM (inactive); in [5], > 100 µM (inactive). The GI50 in [6] and in test [9] was > 100 µM (inactive) each time.
Take `CC1OC(OC2CC(O)(C(=O)CO)Cc3c(O)c4c(c(O)c32)C(=O)c2ccccc2C4=O)CC(N)C1O` (stereo unspecified): the GI50 is < 0.01 µM (active) in [1]; < 0.0117 µM (active) in test [2]; < 0.01 µM (active) in test [3]; 0.0102 µM (active) in test [8]; < 0.01 µM (active) in test [4]; < 0.01 µM (active) in test [5]. For the same molecule, the figures for the GI50 in [9] and in test [7] were < 0.0238 µM (active) and < 0.01 µM (active), respectively.
Regarding `O=C(c1cc2c(C(F)(F)F)onc2c2ccccc12)C(F)(F)F`, the GI50 was 2.15 µM (inactive) in test [1]; 1.22 µM (inactive) in [2]; 0.484 µM (active) in test [3]; 2.38 µM (inactive) in [8]; 1.49 µM (inactive) in test [4]; 3.1 µM (inactive) in [5]. Also, the GI50 in test [9] was 0.347 µM (active); in [7], 6.47 µM (inactive).
